Columns and labels:
CD73 (MDA-MB-231 cells) = CD73 (MDA-MB-231 cells) (Homo sapiens (Human), UniProt P21589); assay: CD73 Cellular Assay; assay type: cell-based; details: 10 μM AMP working solution, 45 min at 37° C., Malachite Green readout, read-out: Cellular IC50 against CD73
Protocol: Compound serial dilution (1:3) was prepared with Echo 555 liquid handler (Labcyte) into the corresponding wells of a 384-well plate. 40 μL of MDA-MB-231 cells (ATCC, HTB-26, breast cancer, final concentration at 20,000 cells/mL) suspended in assay buffer (25 mM Tris-HCl pH 7.5, 5 mM MgCl2, 0.01% BSA, 0.01% Brij-35) were added into the corresponding wells of the plate. After incubating with compounds for 30 minutes, 40 μL of AMP working solution (10 μM AMP, 25 mM Tris-HCl pH 7.5, 5 mM MgCl2, 0.01% BSA, 0.01% Brij-35) was added into each well in the assay plate. The assay plate was then incubated in a 5% CO2 incubator (Thermo Fisher Scientific) at 37° C. for 45 min. After the reaction was completed, 50 μL of the supernatants was collected and transferred into a new 384 well plate. 10 μL of Malachite A was added to each well in the assay plate and incubated for 10 minutes. 10u L of Malachite B was then added to each corresponding well of the plate and incubated for 30 minutes. Finally the absorbance value was read on the Envision plate reader at […]. Calculation percentage inhibition by using equation {% inhibition=100×[I−(X−MIN)/(MAX−MIN)]} where X equals to the well signal, Max equals signal of DMSO control and MIN equals signal of no cell control.

recombinant CD73 protein = recombinant CD73 protein (Homo sapiens (Human), UniProt P21589); assay: CD73 Biochemical Assay; details: 0.2 nM recombinant CD73, 10 μM AMP working solution, Malachite Green readout; read-out: Enzymatic IC50 against CD73
Sequence of recombinant CD73 protein (P21589 27-574, species assumed): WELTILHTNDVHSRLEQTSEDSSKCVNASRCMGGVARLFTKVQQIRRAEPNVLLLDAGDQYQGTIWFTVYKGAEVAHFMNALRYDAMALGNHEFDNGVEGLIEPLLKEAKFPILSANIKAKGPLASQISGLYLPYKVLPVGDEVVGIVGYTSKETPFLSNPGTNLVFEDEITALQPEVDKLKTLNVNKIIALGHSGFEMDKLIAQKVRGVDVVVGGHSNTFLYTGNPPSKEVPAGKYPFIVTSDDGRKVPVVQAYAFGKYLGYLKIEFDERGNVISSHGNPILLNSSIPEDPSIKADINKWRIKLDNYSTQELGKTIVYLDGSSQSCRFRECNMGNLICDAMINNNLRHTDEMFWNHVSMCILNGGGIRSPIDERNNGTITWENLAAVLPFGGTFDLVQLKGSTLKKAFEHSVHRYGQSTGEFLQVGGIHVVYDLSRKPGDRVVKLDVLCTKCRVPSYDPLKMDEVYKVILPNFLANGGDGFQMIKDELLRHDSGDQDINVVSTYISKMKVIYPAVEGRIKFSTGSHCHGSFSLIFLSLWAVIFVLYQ
Protocol: Compound serial dilution (1:3) was prepared with Echo 555 liquid handler (Labcyte) into the corresponding wells of a 384-well plate. 25 μL of enzyme working solution [0.2 nM recombinant CD73 protein (purchased from R&D Systems, Inc), 25 mM Tris-HCl pH 7.5, 5 mM MgCl2, 0.01% BSA, 0.01% Brij-35 non-ionic detergent] was added to the assay plate and incubated with compounds for 15 minutes at room temperature. After adding 25 μL of AMP working solution (10 μM AMP, 25 mM Tris-HCl pH 7.5, 5 mM MgCl2, 0.01% BSA, 0.01% Brij-35) into the assay plate, the reaction was incubated for 10 min at room temperature. 10 uL of Malachite Green A solution was then added to each well for 10 minutes incubation. 10 uL of Malachite B solution was added to each well and then incubated for another 30 minutes. Finally the absorbance value was read on the Envision plate reader (PerkinElmer) at […]. Calculation percentage inhibition by using equation {% inhibition=100×[I−(X−MIN)/(MAX−MIN)]} where X equals to the well signal, Max equals signal of DMSO control and MIN equals signal of no cell control.

Sequence of CD73 (MDA-MB-231 cells) (P21589 27-574): as the sequence (P21589 27-574, species assumed) above

| SMILES | IC50 (CD73 (MDA-MB-231 cells)) | IC50 (recombinant CD73 protein) |
| --- | --- | --- |
| Cn1c(=O)[nH]c2nnc(-c3c[nH]c(=O)[nH]c3=O)cc21 [Example 1, 5-(5-methyl-6-oxo-7H-imidazo[4,5-c]pyridazin-3-yl)-1H-pyrimidine-2,4-dione] | 74 nM | 622 nM |
| Cn1c(=O)n(C)c2nnc(-c3c[nH]c(=O)[nH]c3=O)cc21 [Example 2, 5-(5,7-dimethyl-6-oxo-imidazo[4,5-c]pyridazin-3-yl)-1H-pyrimidine-2,4-dione] | 156 nM | 254 nM |
| Cn1c(=O)n(Cc2ccccc2)c2cc(-c3c[nH]c(=O)[nH]c3=O)nnc21 [Example 4, 5-(5-benzyl-7-methyl-6-oxo-imidazo[4,5-c]pyridazin-3-yl)-1H-pyrimidine-2,4-dione] | 107 nM |  |
| CC(C)n1c(=O)n(C)c2nnc(-c3c[nH]c(=O)[nH]c3=O)cc21 [Example 3, 5-(5-isopropyl-7-methyl-6-oxo-imidazo[4.5-]pyridazin-3-yl)-1H-pyrimidine-2,4-dione] | 27 nM | 267 nM |

From US20260001884A1, “Heterocycle compounds for the treatment of cancer” (Hoffmann-La Roche Inc., priority 2022, published 2026)
